Assay results from ChEMBL document CHEMBL1208692, “A specific and direct comparison of the trifluoromethyl and pentafluoro sulfanyl groups on the selective dopamine D(3) antagonist 3-(3-{[4-methyl-5-(4-methyl-1,3-oxazol-5-yl)-4H-1,2,4-triazol-3-yl]thio}propyl)-1-phenyl-3-azabicyclo[3.1.0]hexane template” (Bioorg Med Chem Lett, 2010).

Tests used:
[1] = Tmax in rat; format: ADME, organism-based; settings: in vivo
[2] = Blood clearance in rat; format: ADME, organism-based; settings: whole blood
[3] = Ratio of drug level in brain to blood in rat; format: ADME, tissue-based; settings: read-out: BBR
Cytochrome P450 3A4 [4] = target: T1, Cytochrome P450 3A4 (Homo sapiens, UniProt P08684); assay: Inhibition of CYP3A4 using diethoxyfluorescein as substrate; format: ADME
Cytochrome P450 1A2 = target: T2, Cytochrome P450 1A2 (Homo sapiens, UniProt P05177); assay: Inhibition of CYP1A2; format: ADME
T2 sequence (P05177 whole entry): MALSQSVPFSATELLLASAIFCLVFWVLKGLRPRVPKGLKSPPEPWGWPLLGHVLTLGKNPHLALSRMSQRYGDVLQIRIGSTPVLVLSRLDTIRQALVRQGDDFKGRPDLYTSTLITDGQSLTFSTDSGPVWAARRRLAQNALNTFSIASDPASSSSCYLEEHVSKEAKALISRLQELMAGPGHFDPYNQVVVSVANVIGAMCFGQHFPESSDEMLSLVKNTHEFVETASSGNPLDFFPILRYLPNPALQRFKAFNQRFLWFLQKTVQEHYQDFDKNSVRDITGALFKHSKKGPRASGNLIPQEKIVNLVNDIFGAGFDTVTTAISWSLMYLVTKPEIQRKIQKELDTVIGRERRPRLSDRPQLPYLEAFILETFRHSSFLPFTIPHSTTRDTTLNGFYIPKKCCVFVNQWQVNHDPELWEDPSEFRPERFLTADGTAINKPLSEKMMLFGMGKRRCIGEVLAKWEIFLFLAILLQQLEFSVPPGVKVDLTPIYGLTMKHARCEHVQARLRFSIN

Cytochrome P450 2D6 = Cytochrome P450 2D6 (Homo sapiens, UniProt P10635); assay: Inhibition of CYP2D6; format: ADME
Cytochrome P450 3A4 [5] = target: T1, Cytochrome P450 3A4; assay: Inhibition of CYP3A4 using 7-benzyloxyquinoline as substrate; format: ADME
Cytochrome P450 2C19 = Cytochrome P450 2C19 (Homo sapiens, UniProt P33261); assay: Inhibition of CYP2C19; format: ADME
Cytochrome P450 2C9 = Cytochrome P450 2C9 (Homo sapiens, UniProt P11712); assay: Inhibition of CYP2C9; format: ADME
[6] = Half life in rat; format: ADME, organism-based; settings: in vivo
[7] = Volume of distribution in rat; format: ADME, organism-based; settings: in vivo
D(2) dopamine receptor = D(2) dopamine receptor (Homo sapiens, UniProt P14416); assay: Antagonist activity at dopamine D2 receptor assessed as inhibition of dopamine-induced [35S]GTPgammaS binding […]; format: functional
[8] = Bioavailability in rat; format: ADME, organism-based; settings: in vivo
[9] = target: Voltage-gated inwardly rectifying potassium channel KCNH2 (Homo sapiens, UniProt Q12809)
D(3) dopamine receptor = D(3) dopamine receptor (Homo sapiens, UniProt P35462); assay: Antagonist activity at dopamine D3 receptor assessed as inhibition of dopamine-induced [35S]GTPgammaS binding […]; format: functional
D(3) dopamine receptor, sequence (P35462 whole entry): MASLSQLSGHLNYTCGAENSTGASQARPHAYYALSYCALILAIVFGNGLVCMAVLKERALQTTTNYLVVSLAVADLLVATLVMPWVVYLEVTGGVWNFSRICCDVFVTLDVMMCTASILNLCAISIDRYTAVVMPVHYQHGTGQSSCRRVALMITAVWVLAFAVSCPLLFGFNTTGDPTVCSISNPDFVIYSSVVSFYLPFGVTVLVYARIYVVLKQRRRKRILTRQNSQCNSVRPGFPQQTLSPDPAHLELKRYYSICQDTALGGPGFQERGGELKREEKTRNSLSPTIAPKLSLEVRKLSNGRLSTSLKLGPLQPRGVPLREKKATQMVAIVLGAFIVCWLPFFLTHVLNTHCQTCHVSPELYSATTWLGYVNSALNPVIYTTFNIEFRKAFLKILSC

D(2) dopamine receptor, sequence (P14416 whole entry): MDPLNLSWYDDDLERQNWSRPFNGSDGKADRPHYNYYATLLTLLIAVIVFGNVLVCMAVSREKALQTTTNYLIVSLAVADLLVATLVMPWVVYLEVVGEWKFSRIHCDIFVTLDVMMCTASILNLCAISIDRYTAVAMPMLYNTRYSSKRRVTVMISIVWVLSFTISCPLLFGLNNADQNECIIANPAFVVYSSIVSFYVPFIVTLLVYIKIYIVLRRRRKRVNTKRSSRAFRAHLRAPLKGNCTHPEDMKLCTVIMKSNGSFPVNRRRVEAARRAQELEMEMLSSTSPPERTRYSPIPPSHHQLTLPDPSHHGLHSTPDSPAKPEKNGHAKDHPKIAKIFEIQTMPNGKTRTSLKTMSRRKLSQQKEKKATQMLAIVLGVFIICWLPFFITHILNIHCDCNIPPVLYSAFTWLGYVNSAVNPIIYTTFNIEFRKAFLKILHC
Cytochrome P450 2D6, sequence (P10635 whole entry): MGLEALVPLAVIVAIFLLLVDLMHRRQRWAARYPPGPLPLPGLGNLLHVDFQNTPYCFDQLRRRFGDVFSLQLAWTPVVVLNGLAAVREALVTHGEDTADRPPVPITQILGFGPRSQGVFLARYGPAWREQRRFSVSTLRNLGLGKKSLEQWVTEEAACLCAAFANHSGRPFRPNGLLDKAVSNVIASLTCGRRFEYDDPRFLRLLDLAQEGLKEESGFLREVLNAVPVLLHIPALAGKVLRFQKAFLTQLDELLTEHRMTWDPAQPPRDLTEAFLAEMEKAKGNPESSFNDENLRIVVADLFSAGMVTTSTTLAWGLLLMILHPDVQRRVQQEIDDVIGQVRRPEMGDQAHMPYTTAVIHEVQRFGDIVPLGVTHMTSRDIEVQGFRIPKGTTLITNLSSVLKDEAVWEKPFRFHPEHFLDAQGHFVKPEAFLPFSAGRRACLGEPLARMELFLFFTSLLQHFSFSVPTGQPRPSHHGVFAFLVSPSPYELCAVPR
Cytochrome P450 2C19, sequence (P33261 whole entry): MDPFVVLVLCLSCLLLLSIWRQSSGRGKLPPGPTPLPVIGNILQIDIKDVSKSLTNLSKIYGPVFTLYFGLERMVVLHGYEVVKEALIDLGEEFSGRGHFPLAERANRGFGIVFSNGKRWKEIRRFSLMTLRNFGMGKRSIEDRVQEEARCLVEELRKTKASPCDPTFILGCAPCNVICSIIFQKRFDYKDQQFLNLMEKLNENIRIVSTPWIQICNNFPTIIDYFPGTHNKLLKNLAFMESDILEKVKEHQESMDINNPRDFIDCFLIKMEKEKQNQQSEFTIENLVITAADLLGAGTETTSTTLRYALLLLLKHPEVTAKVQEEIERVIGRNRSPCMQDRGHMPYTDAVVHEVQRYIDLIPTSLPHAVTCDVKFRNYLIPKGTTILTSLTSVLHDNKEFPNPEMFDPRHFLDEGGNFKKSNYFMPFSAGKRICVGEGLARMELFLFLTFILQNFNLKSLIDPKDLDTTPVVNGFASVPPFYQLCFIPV
Voltage-gated inwardly rectifying potassium channel KCNH2, sequence (Q12809 whole entry): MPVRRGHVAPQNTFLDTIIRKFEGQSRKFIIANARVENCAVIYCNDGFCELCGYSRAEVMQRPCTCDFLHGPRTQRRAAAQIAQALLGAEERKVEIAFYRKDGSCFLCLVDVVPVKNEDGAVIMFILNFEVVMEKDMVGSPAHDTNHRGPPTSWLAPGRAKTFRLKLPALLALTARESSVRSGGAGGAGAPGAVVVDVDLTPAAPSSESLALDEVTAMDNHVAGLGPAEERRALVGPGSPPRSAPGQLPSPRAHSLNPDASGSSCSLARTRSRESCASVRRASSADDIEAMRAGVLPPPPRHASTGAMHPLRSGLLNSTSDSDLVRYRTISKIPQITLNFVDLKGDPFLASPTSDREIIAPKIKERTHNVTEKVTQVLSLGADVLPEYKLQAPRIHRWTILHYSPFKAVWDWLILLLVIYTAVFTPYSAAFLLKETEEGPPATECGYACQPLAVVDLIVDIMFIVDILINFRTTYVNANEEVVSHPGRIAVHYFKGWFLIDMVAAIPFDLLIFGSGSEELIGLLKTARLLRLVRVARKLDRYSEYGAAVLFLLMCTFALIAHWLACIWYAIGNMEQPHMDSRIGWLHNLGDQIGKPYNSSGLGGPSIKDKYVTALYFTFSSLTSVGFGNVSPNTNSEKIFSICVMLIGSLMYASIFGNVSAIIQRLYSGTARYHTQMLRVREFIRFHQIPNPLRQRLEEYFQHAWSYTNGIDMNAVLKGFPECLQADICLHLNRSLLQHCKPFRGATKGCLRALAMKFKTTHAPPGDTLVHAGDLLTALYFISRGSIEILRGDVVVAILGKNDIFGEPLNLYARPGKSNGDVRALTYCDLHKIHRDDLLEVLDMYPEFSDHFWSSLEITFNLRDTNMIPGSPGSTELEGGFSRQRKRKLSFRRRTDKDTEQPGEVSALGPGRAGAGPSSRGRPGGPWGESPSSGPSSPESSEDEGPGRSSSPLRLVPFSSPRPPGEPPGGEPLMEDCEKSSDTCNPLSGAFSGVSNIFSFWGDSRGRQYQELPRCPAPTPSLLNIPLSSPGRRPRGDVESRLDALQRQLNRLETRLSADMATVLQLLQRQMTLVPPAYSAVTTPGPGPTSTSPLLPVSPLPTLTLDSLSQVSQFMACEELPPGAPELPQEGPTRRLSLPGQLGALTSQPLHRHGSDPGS
T1 sequence (P08684 whole entry): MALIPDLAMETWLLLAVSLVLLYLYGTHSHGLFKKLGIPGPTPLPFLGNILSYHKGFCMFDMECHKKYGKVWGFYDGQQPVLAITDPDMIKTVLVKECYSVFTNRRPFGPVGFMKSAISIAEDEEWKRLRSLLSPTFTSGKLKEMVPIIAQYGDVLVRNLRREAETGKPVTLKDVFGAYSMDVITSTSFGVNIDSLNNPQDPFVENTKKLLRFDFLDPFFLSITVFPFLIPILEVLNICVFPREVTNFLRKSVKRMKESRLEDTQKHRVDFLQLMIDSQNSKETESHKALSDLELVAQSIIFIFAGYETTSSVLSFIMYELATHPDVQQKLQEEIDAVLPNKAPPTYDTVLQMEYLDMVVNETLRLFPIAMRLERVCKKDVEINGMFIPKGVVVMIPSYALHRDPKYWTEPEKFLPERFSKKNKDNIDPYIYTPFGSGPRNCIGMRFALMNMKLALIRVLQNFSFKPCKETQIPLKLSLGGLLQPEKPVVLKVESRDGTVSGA
Cytochrome P450 2C9, sequence (P11712 whole entry): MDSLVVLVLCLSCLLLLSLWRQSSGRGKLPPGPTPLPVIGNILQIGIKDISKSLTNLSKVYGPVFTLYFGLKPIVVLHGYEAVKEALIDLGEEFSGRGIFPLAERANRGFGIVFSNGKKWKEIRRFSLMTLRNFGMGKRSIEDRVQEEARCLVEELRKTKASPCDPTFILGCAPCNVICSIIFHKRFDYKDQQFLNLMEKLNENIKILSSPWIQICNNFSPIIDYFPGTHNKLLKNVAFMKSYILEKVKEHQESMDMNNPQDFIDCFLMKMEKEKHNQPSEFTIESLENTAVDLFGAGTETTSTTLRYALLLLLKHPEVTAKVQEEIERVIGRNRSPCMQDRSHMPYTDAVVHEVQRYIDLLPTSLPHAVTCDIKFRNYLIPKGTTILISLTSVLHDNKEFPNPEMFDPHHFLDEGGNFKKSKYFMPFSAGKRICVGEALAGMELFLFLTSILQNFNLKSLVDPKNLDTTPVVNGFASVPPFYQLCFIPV

Compound | Tmax [1] [h] | clearance [2] [mL/min/kg] | Kp [3] | IC50 (Cytochrome P450 3A4 [4]) [µM] | IC50 (Cytochrome P450 1A2) [µM] | IC50 (Cytochrome P450 2D6) [µM] | IC50 (Cytochrome P450 3A4 [5]) [µM] | IC50 (Cytochrome P450 2C19) [µM] | IC50 (Cytochrome P450 2C9) [µM] | half-life [6] [min] | Vd [7] [L/kg] | Ki (D(2) dopamine receptor) [nM] | bioavailability [8] [%] | IC50 [9] [nM] | Ki (D(3) dopamine receptor) [nM]
Cc1ncoc1-c1nnc(SCCCN2CC3CC3(c3ccc(C(F)(F)F)cc3)C2)n1C (racemic) | 1.5 | 14 | 2.3 |  |  |  |  |  |  |  |  |  |  |  | 
Cc1ncoc1-c1nnc(SCCCN2CC3CC3(c3cccc(C(F)(F)F)c3)C2)n1C (racemic) |  |  |  | > 10 | > 10 | > 10 | > 10 | 5 | > 10 |  |  |  |  |  | 
Cc1ncoc1-c1nnc(SCCCN2CC3CC3(c3ccc(S(F)(F)(F)(F)F)cc3)C2)n1C (racemic) | 2.7 | 8 | 2.2 | > 10 | > 10 | 8 | > 10 | > 10 | 9 | 264 | 2.8 | 158 | 87 |  | 
Cc1ncoc1-c1nnc(SCCCN2CC3CC3(c3cccc(S(F)(F)(F)(F)F)c3)C2)n1C (racemic) |  |  |  | > 10 | > 10 | 3 | > 10 | 9 | 4 |  |  | 126 |  | 1000 | 1.26
Cc1ncoc1-c1nnc(SCCCN2CC3CC3(c3ccc(S(F)(F)(F)(F)F)cc3)C2)n1C (single isomer, unassigned) |  |  |  | > 10 | 7 | > 10 | > 10 | > 10 | 9 |  |  | 251 |  |  | 12.6
Cc1ncoc1-c1nnc(SCCCN2CC3CC3(c3cccc(S(F)(F)(F)(F)F)c3)C2)n1C (single isomer, unassigned; 11) |  |  |  | > 10 | > 10 | 5 | > 10 | 4 | 2 |  |  | > 3160 |  | 2000 | 15.8
Cc1ncoc1-c1nnc(SCCCN2CC3CC3(c3cccc(S(F)(F)(F)(F)F)c3)C2)n1C (single isomer, unassigned; 12) |  |  |  | > 10 | > 10 | 2 | > 10 | 3 | 2 |  |  | 31.6 |  | 1260 | 0.631
Cc1ncoc1-c1nnc(SCCCN2CC3CC3(c3ccc(S(F)(F)(F)(F)F)cc3)C2)n1C (stereo in doubt; 8) |  |  |  | > 10 | 8 | > 10 | > 10 | > 10 | 9 |  |  | 158 |  |  | 1
